{
  "source": "patent US6355681B2",
  "about": "“Glycine substitutes and precursors for treating a psychosis” (Glytech, Inc., priority 1995, dated 2002)",
  "key": {"[1]": {"system": "PCP-induced hyperactivity", "experiment": "Inhibition of PCP-induced locomotor hyperactivity", "assay_type": "in vivo, BALB/c mice", "conditions": "for inhibition of PCP-induced hyperactivity: 100 mg/kg i.p. pretreatment, summed activity over 90 min", "description": "(§1) Behavioral studies were performed using BALB/c mice (25 g) of either sex. Rodent activity was monitored using a photocell-based activity meter (Columbus Instruments Auto-Track System, Columbus, Ohio). Animals were placed in test cages and allowed to accommodate overnight. […] 30 min. after pretreatment, animals were injected with either PCP (5 mg/kg i.p.) or amphetamine (5 mg/kg s.c.). Activity was then monitored for an additional 90 minutes. For statistical analyses, summed activity over the 90 min. following PCP/amphetamine injection was used as a measure of drug-induced hyperactivity."}, "[2]": {"biological_target": "T1, GLYT1-mediated synaptosomal glycine transport (Rattus norvegicus, UniProt P28572)", "T1 construct": "Synaptosomal P2 fractions were prepared from cerebral cortex+hippocampus of Sprague-Dawley rats; from tissue; host or cells: rat cerebral cortex + hippocampus, P2 synaptosomal fraction", "T1 sequence (P28572 1-638)": "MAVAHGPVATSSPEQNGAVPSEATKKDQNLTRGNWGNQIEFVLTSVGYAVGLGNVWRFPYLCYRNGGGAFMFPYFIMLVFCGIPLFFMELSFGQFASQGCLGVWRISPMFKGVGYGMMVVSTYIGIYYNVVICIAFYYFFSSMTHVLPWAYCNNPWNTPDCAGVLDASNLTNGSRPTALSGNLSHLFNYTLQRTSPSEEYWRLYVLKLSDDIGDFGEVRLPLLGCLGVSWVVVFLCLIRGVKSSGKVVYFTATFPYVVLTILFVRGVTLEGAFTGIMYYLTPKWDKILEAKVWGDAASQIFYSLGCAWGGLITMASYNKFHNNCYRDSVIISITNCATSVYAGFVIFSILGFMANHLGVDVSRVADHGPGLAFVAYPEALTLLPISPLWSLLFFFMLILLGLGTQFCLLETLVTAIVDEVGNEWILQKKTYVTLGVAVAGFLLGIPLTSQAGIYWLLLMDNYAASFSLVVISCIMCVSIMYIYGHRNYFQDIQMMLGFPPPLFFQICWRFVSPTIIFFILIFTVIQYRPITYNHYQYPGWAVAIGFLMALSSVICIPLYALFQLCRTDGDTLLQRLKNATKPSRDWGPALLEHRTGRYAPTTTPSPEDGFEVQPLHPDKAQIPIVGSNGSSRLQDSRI", "experiment": "Inhibition of [3H]glycine uptake in P2 synaptosomal fractions", "assay_type": "biochemical, Sprague-Dawley rats", "conditions": "100 μg/ml", "description": "Synaptosomal P2 fractions were prepared from cerebral cortex+hippocampus of Sprague-Dawley rats (200-250 g). Brain tissue was homogenized in 0.32 M sucrose in Tris-HCl buffer (pH 7.4), and centrifuged at 1,000×g for 10 min at 4° C. in a Sorvall 5C centrifuge. The supernatant was then centrifuged at 14,000×g for 10 min and the pellet resuspended in artificial CSF having the following composition (mM): NaCl, 125; KCl, 3; MgSO4, 1.2; CaCl2, 1.2; NaH2PO4, 1; NaHCO3, 22; glucose, 10. Homogenate was aerated with 95% O2/5% CO2 until use. 1 ml aliquots of homogenate were preincubated with specific concentrations of glycineamide derivatives, following which incubation was initiated by the addition of 10 μl of 10 μM [^3H]glycine (DuPont/NEN or Sigma, spec. act.≈45 Ci/mmol) to obtain a final concentration of 100 nM. Nonspecific binding was determined in the presence of 10 mM sarcosine. Following 5 min, incubation was terminated by filtration under reduced pressure using a Brandel 24-well cell harvester and Whatman GF-B filters. Radioactivity was determined by scintillation counter with approximate efficiency of 50%."}, "[3]": {"experiment": "Double blind, placebo-controlled crossover study of D-cycloserine in schizophrenia (PANSS)", "assay_type": "in vivo, human", "conditions": "D-cycloserine 50 mg/day, 6 weeks"}, "[4]": {"system": "PCP-induced hyperactivity", "conditions": "cited from earlier work"}, "[5]": {"system": "amphetamine-induced hyperactivity", "experiment": "Effect on amphetamine-induced locomotor hyperactivity", "assay_type": "in vivo, BALB/c mice", "conditions": "GDA 50 mg/kg i.p.; amphetamine 5 mg/kg", "description": "as §1"}},
  "note": "Like-named read-outs stand apart in the source and are kept apart here.",
  "data": [
    {"compound": "CCCCCCCCCCCCCNC(=O)CN", "note": "[G13A, glycyltriscadecylamide]", "values": [
      {"measurement": "inhibition of PCP-induced hyperactivity", "setting": "[1]; PCP 5 mg/kg i.p.", "result": "Significant reductions"},
      {"measurement": "effect on GLYT1-mediated transport at single fixed concentration", "setting": "[2]", "result": "significant inhibition"}
    ]},
    {"compound": "CCCCCCCCNC(=O)CN", "note": "[G8A, glycyloctylamide]", "values": [
      {"measurement": "effect on GLYT1-mediated transport at single fixed concentration", "setting": "[2]", "result": "no significant effect"}
    ]},
    {"compound": "N[C@@H]1CONC1=O", "note": "[D-cycloserine]", "values": [
      {"measurement": "change in general psychopathology scores (PANSS)", "setting": "[3]", "result": "did not change significantly"},
      {"measurement": "change in positive symptoms (PANSS)", "setting": "[3]", "result": "did not change significantly"},
      {"measurement": "mean decrease in negative symptoms", "setting": "[3]", "result": 9.2, "unit": "%"},
      {"measurement": "reduction in negative symptoms (PANSS)", "setting": "[3]; mean±SD", "result": "3.6±3.7", "unit": "point"}
    ]},
    {"compound": "CCCCCCCCCCNC(=O)CN", "note": "[G10A, glycyldecylamide]", "values": [
      {"measurement": "inhibition of PCP-induced hyperactivity", "setting": "[1]; PCP 5 mg/kg i.p.", "result": "Significant reductions"},
      {"measurement": "effect on GLYT1-mediated transport at single fixed concentration", "setting": "[2]", "result": "significant inhibition"}
    ]},
    {"compound": "glycylhexylamide [G6A]", "values": [
      {"measurement": "inhibition of PCP-induced hyperactivity", "setting": "[1]; PCP 5 mg/kg i.p.", "result": "did not significantly inhibit"},
      {"measurement": "effect on GLYT1-mediated transport at single fixed concentration", "setting": "[2]", "result": "significant potentiation"},
      {"measurement": "inhibition of PCP-induced hyperactivity (early study, Toth et al., 1986)", "setting": "[4]; literature", "result": "not to significantly inhibit"}
    ]},
    {"compound": "NCC(=O)O", "note": "[glycine]", "values": [
      {"measurement": "change in positive symptoms (PANSS)", "setting": "beginning to end of glycine treatment", "result": "did not change significantly"},
      {"measurement": "positive symptoms score at end of treatment", "setting": "end of glycine treatment (beginning 25.7±7.0), mean±SD", "result": "22.0±4.0", "unit": "points"},
      {"measurement": "general psychopathology score at end of treatment", "setting": "end of glycine treatment (from 56.0±19.4), mean±SD", "result": "43.0±13.8", "unit": "points"},
      {"measurement": "decrease in general psychopathology symptoms", "setting": "glycine 0.8 g/kg/day, 6 weeks", "result": 23.2, "unit": "%"},
      {"measurement": "mean reduction in negative symptoms", "setting": "glycine 0.8 g/kg/day, 6 weeks", "result": 28.5, "unit": "%"},
      {"measurement": "reduction in negative symptoms (PANSS)", "setting": "glycine 0.8 g/kg/day, 6 weeks, 7 neuroleptic-resistant schizophrenia subjects, mean±SD", "result": "11.3±3.6", "unit": "point"},
      {"measurement": "change in general psychopathology (PANSS)", "setting": "glycine 0.8 g/kg/day, 6 weeks, mean±SD", "result": "13.0±7.7", "unit": "point"},
      {"measurement": "degree of reduction in negative symptoms relative to D-cycloserine treatment", "setting": "same subjects, change scores compared across the two trials", "result": 3, "unit": "fold"}
    ]},
    {"compound": "CCCCCCCCCCCCNC(=O)CN", "note": "[GDA, glycyldodecylamide]", "values": [
      {"measurement": "PCP-induced hyperactivity, % of control (PCP alone) levels", "setting": "[1]; 50 mg/kg, PCP 5 mg/kg i.p.", "result": "below 70 % of control"},
      {"measurement": "inhibition of PCP-induced hyperactivity", "setting": "[1]; PCP 5 mg/kg i.p.", "result": "Significant reductions"},
      {"measurement": "PCP-induced hyperactivity, % of control (PCP alone) levels", "setting": "[1]; 100 mg/kg, PCP 5 mg/kg i.p.", "result": "below 50 % of control"},
      {"measurement": "effect on hyperactivity induced by PCP", "setting": "[1]; GDA 50 mg/kg i.p., PCP 5 mg/kg i.p.", "result": "significantly reduced"},
      {"measurement": "effect on basal activity", "setting": "[1]; GDA pretreatment 50 mg/kg i.p.", "result": "did not significantly affect"},
      {"measurement": "effect on hyperactivity induced by amphetamine", "setting": "[5]", "result": "not significantly altered"},
      {"measurement": "effect on GLYT1-mediated transport at single fixed concentration", "setting": "[2]", "result": "significant inhibition"},
      {"measurement": "potency in reversing PCP-induced hyperactivity relative to glycine (Toth et al., 1986)", "setting": "[4]; early preclinical studies", "result": "significantly more potent than glycine"},
      {"measurement": "doses inhibiting PCP-induced hyperactivity (prior studies)", "setting": "[4]; i.p., prior studies", "result": "50 to 200", "unit": "mg/kg"}
    ]},
    {"compound": "CCCCCCCCCCCNC(=O)CN", "note": "[G11A, glycylundecylamide]", "values": [
      {"measurement": "effect on GLYT1-mediated transport at single fixed concentration", "setting": "[2]", "result": "significant inhibition"}
    ]}
  ]
}
